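Step 1: Grow cells in 96-well plates. Step 2: Expose to compound for 48 hours at 5 concentrations. Step 3: Interpolate endpoints linearly; if unreached, use highest concentration. At the GI50, growth is halved. TGI is the concentration that stops growth completely.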
Legend:
Assay in all cases: growth of human tumour cells (NCI), 48 h
CAKI-1 renal = test system: CAKI-1 renal
IGROV1 ovarian = test system: IGROV1 ovarian
LXFL 529 NSCLC = test system: LXFL 529 NSCLC
SF-268 CNS = test system: SF-268 CNS
SF-295 CNS = test system: SF-295 CNS
SK-MEL-2 melanoma = test system: SK-MEL-2 melanoma
XF 498 CNS = test system: XF 498 CNS
BT-549 breast = test system: BT-549 breast
NCI/ADR-RES ovarian = test system: NCI/ADR-RES ovarian
RXF 393 renal = test system: RXF 393 renal

Row | Compound | TGI (CAKI-1 renal) [µM] | TGI (IGROV1 ovarian) [µM] | TGI (LXFL 529 NSCLC) [µM] | TGI (SF-268 CNS) [µM] | TGI (SF-295 CNS) [µM] | TGI (SK-MEL-2 melanoma) [µM] | TGI (XF 498 CNS) [µM] | GI50 (BT-549 breast) [µM] | TGI (BT-549 breast) [µM] | GI50 (CAKI-1 renal) [µM] | GI50 (IGROV1 ovarian) [µM] | GI50 (NCI/ADR-RES ovarian) [µM] | TGI (NCI/ADR-RES ovarian) [µM] | GI50 (RXF 393 renal) [µM] | TGI (RXF 393 renal) [µM] | GI50 (SF-268 CNS) [µM] | GI50 (SF-295 CNS) [µM] | GI50 (SK-MEL-2 melanoma) [µM]
1 | CC(C)C(=O)N[C@@H](C)C(=O)N(Cc1ccc2ccccc2c1)N=O | > 100 | > 100 | > 100 | > 100 | > 100 | > 100 | > 100 |  |  |  |  |  |  |  |  |  |  | 
2 | CCN(CC)CCOc1ccc(/C=C2\CC3C4CCC5=CC(=O)CC[C@]5(C)C4CC[C@]3(C)C2=O)cc1OC (stereo partly drawn) | 6.54 | > 100 |  | 5.62 | 4.06 | > 100 |  | 5.02 | 19.7 | 2.66 | 22.7 | 3.22 | 13 | 1.85 | 4.56 | 2.34 | 2.01 | 9.01
3 | C(=C\c1csnn1)/c1cccnc1 |  |  | > 100 | > 100 | > 100 | > 100 | > 100 |  |  |  |  |  |  |  | > 100 |  |  | 
4 | COc1ccc2c(c1)c(C1(c3cn(C)c4ccc(OC)cc34)C(=O)Nc3ccc(F)cc31)cn2C | 45.3 | > 100 |  | > 100 | 18.3 | 9.64 |  | 10.6 | 50.8 | 2.06 | 4.26 | 4.66 | > 100 | 3.74 | 16.2 | 5.7 | 2.95 | 3.62
5 | N#Cc1ccccc1C#C/C=C\C#Cc1ccc(OCCCNC(=O)c2cc3ccccc3[nH]2)cc1 | 48 | 33.7 |  | > 100 | 34.6 | 44.6 |  | 20.2 | > 100 | 20.2 | 14.1 | 23.5 | > 100 | 21.4 | 52.2 | 30.6 | 16.1 | 20.5
6 | O=C(O)C1C2CC3C(OC(=O)C31)C2Br (stereo not drawn) | > 100 | > 100 |  | > 100 | > 100 | > 100 |  |  | > 100 |  |  |  | > 100 |  | > 100 |  |  | 
7 | CC1=CC(C)(C)N=C2SC(c3ccc(Cl)cc3)=NN12 | > 100 | > 100 | > 100 | > 100 | > 100 | > 100 | 51.8 |  |  |  |  |  |  |  |  |  |  | 
8 | O=C(Nc1ccc(Br)cc1)Nc1n[nH]c2ccccc12 | > 100 | > 100 |  | > 100 | > 100 | > 100 |  | > 100 | > 100 | > 100 | 17.5 | > 100 | > 100 | > 62.8 | > 100 | > 46 | > 100 | > 100
9 | O=c1cc(Cl)nc[nH]1 | > 100 | > 100 | > 100 | > 100 | > 100 | > 100 |  |  |  |  |  |  |  |  |  |  |  | 
10 | O=C(CCC(=O)Nc1ccc(Cl)cc1)CC(=O)c1ccc(F)cc1 | > 100 | > 100 | > 100 | > 100 | > 100 | > 100 | > 100 |  |  |  |  |  |  |  |  |  |  | 
11 | CS(=O)(=O)CCNCc1ccc(-c2ccc3ncnc(Nc4ccc(OCc5cccc(C(F)(F)F)c5)cc4)c3c2)o1 | > 19.8 | > 17.5 |  | 9.82 | 11.3 | 9.96 |  | 9.57 | > 21.8 | 5.57 | 5.46 | 7.19 | > 25 | 5.28 | 13.6 | 4.54 | 5.08 | 5.46
12 | O=C(Nc1c(-c2nc3ccccc3[nH]2)sc(=S)n1-c1ccccc1)c1ccccc1 | > 100 | > 100 | > 100 | > 100 | > 100 | > 100 |  |  |  |  |  |  |  |  | > 100 |  |  | 
13 | O=Cc1ccc(-c2ccc(-c3ccc(C=O)s3)o2)s1 | 1.31 | 35.8 | 0.324 | > 100 | > 100 | > 100 |  |  | > 100 |  |  |  | > 100 |  | 2.65 |  |  | 
14 | CC(=O)OC1COC(S[As](C)C)C(OC(C)=O)C1OC(C)=O (stereo not drawn) | 0.74 | 1.58 |  | 11.6 | 8.31 | 1.99 |  | 0.755 | 6.22 | 0.041 | 0.225 | 0.155 | 0.974 | 0.338 | 2.9 | 1.23 | 2.19 | 0.429

Source: PubChem BioAssay (NCI)
